# Source: patent US20080004253A1, “Thiazolopyrimidine modulators of TRPV1” (priority 2006, published 2008)
# Assays:
# [1] = molecular target: T1, human TRPV1 (Homo sapiens, UniProt Q8NER1); test: Functional assay: block of capsaicin-induced Ca2+ influx, human assay (hTRPV1/HEK293, FLIPR); assay type: cell-based; details: hTRPV1/HEK293 cells, 150 nM capsaicin challenge, Fluo-3 fluorescence; mean; > value = solubility limit in assay medium
# T1 construct: expressed in transfected cells; host or cells: HEK293 (hTRPV1/HEK293), zeocin selection
# T1 sequence (Q8NER1 whole entry): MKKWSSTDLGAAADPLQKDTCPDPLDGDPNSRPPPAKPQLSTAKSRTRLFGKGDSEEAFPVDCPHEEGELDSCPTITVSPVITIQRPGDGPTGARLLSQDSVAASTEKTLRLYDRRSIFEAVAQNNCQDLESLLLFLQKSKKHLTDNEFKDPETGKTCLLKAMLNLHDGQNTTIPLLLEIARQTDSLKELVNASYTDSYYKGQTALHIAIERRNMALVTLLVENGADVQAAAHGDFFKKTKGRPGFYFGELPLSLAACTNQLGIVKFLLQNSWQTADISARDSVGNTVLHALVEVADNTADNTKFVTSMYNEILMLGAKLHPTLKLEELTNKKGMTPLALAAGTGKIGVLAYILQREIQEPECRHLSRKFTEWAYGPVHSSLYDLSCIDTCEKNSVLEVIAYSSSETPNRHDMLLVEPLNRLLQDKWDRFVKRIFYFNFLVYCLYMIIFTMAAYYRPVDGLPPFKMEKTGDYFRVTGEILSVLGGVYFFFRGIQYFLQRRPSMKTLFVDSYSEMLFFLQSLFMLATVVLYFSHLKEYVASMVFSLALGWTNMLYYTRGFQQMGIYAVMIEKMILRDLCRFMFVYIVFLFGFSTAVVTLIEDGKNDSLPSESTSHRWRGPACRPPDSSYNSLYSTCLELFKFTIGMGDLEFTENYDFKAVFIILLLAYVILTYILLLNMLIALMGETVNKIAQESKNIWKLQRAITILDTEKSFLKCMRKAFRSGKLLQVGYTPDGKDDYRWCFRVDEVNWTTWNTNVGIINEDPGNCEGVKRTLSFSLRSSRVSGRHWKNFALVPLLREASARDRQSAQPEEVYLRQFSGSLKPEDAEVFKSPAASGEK
# Procedure: (§1) Functional assay: block of capsaicin-induced Ca^2+ influx
# (§2) HEK293 cells were transfected with human TRPV1 cloned in pcDNA3.1zeo(+) using the Effectene non-liposomal lipid based transfection kit (Qiagen) (hTRPV1/HEK293). hTRPV1/HEK293 cells were routinely grown as monolayers under selection in zeocin (200 μg/mL; Invitrogen) in Dulbecco's Modified Eagle Medium (DMEM, Gibco BRL) supplemented with 10% fetal bovine serum, and penicillin/streptomycin (50 units/mL) in 5% CO2 at 37° C. Cells were passaged frequently, every 3-5 days, to avoid overgrowth, depletion of essential medium components, or acidic medium exposure. Cells were passaged using a brief wash in 0.05% trypsin with 1 mM EDTA, followed by dissociation in divalent-free phosphate-buffered saline (Hyclone #SH30028.02). […] The assay buffer was composed of 130 mM NaCl, 2 mM KCl, 2 mM MgCl2, 10 mM HEPES, 5 mM glucose, and either 2 mM or 20 μM CaCl2. On the day of the experiment, the culture medium was replaced with 2 mM calcium assay buffer using an automated plate washer (ELx405; Biotek, VT). […] After loading the cells, the dye solution was replaced with 50 μL/well of 20 μM calcium assay buffer using the ELx405 plate washer. Test compounds (50 μL/well) were added to the plate and incubated for 30 min. […] The IC50 values were determined. […] The contents of the wells were mixed 3 times (40 μL mix volume) immediately after the additions were made. Concentration-dependence of block was determined by exposing each well of cells in duplicate rows of a 96-well plate to a serial dilution of test compound. The concentration series usually started at 10 μM with a three-fold serial decrement in concentration. The magnitude of the capsaicin response was determined by measuring the change in fluo3 fluorescence before and 100 seconds after the addition of the agonist. Data were analyzed using a non-linear regression program (Origin; OriginLab, MA).
# (§3) IC50 values shown are the average (mean) of the results obtained. […] Compounds were tested in either the free base or trifluoroacetic acid salt form.
# [2] = molecular target: T2, rat TRPV1 (Rattus norvegicus, UniProt O35433); test: Functional assay: block of capsaicin-induced Ca2+ influx, rat assay (rTRPV1/HEK293, FLIPR); assay type: cell-based; details: rTRPV1/HEK293 cells, capsaicin challenge, Fluo-3 fluorescence; mean; > value = solubility limit in assay medium
# T2 construct: expressed in transfected cells; host or cells: HEK293 (rTRPV1/HEK293), geneticin selection
# T2 sequence (O35433 whole entry): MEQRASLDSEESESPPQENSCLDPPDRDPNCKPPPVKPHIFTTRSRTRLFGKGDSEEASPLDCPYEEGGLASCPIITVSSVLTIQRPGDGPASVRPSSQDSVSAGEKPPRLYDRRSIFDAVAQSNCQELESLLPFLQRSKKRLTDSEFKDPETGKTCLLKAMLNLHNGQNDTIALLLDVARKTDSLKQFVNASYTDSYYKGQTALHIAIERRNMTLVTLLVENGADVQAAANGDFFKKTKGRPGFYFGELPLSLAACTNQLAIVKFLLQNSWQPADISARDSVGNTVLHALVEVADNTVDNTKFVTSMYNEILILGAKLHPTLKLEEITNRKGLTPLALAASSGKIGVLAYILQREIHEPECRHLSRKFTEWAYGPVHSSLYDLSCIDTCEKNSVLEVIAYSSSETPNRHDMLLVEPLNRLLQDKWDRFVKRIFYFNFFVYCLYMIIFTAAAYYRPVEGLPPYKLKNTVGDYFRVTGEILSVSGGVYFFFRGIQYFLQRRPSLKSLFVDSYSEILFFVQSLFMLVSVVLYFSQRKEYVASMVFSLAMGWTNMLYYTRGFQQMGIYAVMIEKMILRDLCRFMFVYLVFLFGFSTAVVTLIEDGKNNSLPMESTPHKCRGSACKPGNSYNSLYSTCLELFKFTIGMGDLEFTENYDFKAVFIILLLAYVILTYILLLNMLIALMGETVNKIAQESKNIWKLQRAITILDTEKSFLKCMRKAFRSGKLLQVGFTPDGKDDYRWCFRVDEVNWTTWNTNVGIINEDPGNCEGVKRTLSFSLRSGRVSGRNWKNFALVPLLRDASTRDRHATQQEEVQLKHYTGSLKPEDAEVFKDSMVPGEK
# Procedure: as §1, §2
# This assay was performed similarly to the human assay described above, but using HEK293 cells transfected with rat TRPV1 (rTRPV1/HEK293).
# as §3
SMILES,IC50 [1],IC50 [2]
"Cc1cccc(C)c1Nc1nc2c(Nc3ccc(C(N)=O)cc3)ncnc2s1 [Example 169, 4-[2-(2,6-Dimethyl-phenylamino)-thiazolo[5,4-d]pyrimidin-7-ylamino]-benzamide]",> 20000 nM,17300 nM
"O=S(=O)(c1ccc(Nc2ncnc3sc(Nc4c(Cl)cccc4Cl)nc23)cc1)N1CCNCC1 [Example 134, N^2-(2,6-Dichloro-phenyl)-N^7-[4-(piperazine-1-sulfonyl)-phenyl]-thiazolo[5,4-d]pyrimidine-2,7-diamine]",202 nM,78 nM
"Cc1ccc(Nc2ncnc3sc(Nc4c(C)cccc4C)nc23)cc1 [Example 35, N^2-(2,6-Dimethyl-phenyl)-N^7-p-tolyl-thiazolo[5,4-d]pyrimidine-2,7-diamine]",31 nM,10 nM
"Cc1nc(Nc2ccc(C)c(F)c2)c2nc(Nc3c(C)cccc3C)sc2n1 [Example 133, N^2-(2,6-Dimethyl-phenyl)-N^7-(3-fluoro-4-methyl-phenyl)-5-methyl-thiazolo[5,4-d]pyrimidine-2,7-diamine]",175 nM,107 nM
"Cc1cccc(C)c1Nc1nc2c(NCc3ccccc3)ncnc2s1 [Example 43, N^7-Benzyl-N^2-(2,6-dimethyl-phenyl)-thiazolo[5,4-d]pyrimidine-2,7-diamine]",> 6670 nM,> 6670 nM
"Cc1cccc(C)c1Nc1nc2c(Nc3ccc(S(=O)(=O)N(C)C)cc3)ncnc2s1 [Example 98, 4-[2-(2,6-Dimethyl-phenylamino)-thiazolo[5,4-d]pyrimidin-7-ylamino]-N,N-dimethyl-benzenesulfonamide]",15 nM,7 nM
"Cc1cccc(C)c1Nc1nc2c(Nc3ccccc3C(F)(F)F)ncnc2s1 [Example 36, N^2-(2,6-Dimethyl-phenyl)-N^7-(2-trifluoromethyl-phenyl)-thiazolo[5,4-d]pyrimidine-2,7-diamine]",> 6670 nM,> 6670 nM
"Cc1cccc(C)c1Nc1nc2c(Nc3ccc(C(C)(C)C#N)cc3)ncnc2s1 [Example 32, 2-{4-[2-(2,6-Dimethyl-phenylamino)-thiazolo[5,4-d]pyrimidin-7-ylamino]-phenyl}-2-methyl-propionitrile]",51 nM,8 nM

# The next lines start with the values.
IC50 [1],IC50 [2],SMILES
6 nM,5 nM,"Cc1nc(Nc2ccc(C(F)(F)F)cc2)c2nc(Nc3c(C)cccc3C)sc2n1 [Example 245, N^2-(2,6-Dimethyl-phenyl)-5-methyl-N^7-(4-trifluoromethyl-phenyl)-thiazolo[5,4-d]pyrimidine-2,7-diamine]"
8 nM,5 nM,"CS(=O)(=O)c1ccc(Nc2nc(NCC3CC3)nc3sc(Nc4c(Cl)cccc4Cl)nc23)cc1 [Example 184, N^5-Cyclopropylmethyl-N^2-(2,6-dichloro-phenyl)-N^7-(4-methanesulfonyl-phenyl)-thiazolo[5,4-d]pyrimidine-2,5,7-triamine]"
> 20000 nM,> 20000 nM,"Cc1cccc(C)c1Nc1nc2c(Nc3ccc(C(=O)O)cc3)ncnc2s1 [Example 172, 4-[2-(2,6-Dimethyl-phenylamino)-thiazolo[5,4-d]pyrimidin-7-ylamino]-benzoic acid]"
1320 nM,1820 nM,"CN(C)CCN(C)c1nc(Nc2ccc(C(F)(F)F)cc2)c2nc(Nc3c(Cl)cccc3Cl)sc2n1 [Example 182, N^2-(2,6-Dichloro-phenyl)-N^5-(2-dimethhylamino-ethyl)-methyl-N^7-(4-trifluoromethyl-phenyl)-thiazolo[5,4-d]pyrimidine-2,5,7-triamine]"
7070 nM,7720 nM,"FC(F)(F)c1ccc(Nc2ncnc3sc(NC4CCCCC4)nc23)cn1 [Example 233, N^2-Cyclohexyl-N^7-[6-(trifluoromethyl)pyridin-3-yl][1,3]thiazolo[5,4-d]pyrimidine-2,7-diamine]"
3420 nM,3750 nM,"FC(F)(F)c1ccc(Nc2ncnc3sc(Nc4c(Cl)cc(CN5CCC5)cc4Cl)nc23)cc1 [Example 239, N^2-(4-Azetidin-1-ylmethyl-2,6-dichloro-phenyl)-N^7-(4-trifluoromethy-phenyl)-thiazolo[5,4-d]pyrimidine-2,7-diamine]"
